Assay results reported in patent publication US6087375A, “Methods of treating or preventing thromboses” (priority 1999, dated 2000).

Legend:
[1] = test system: human platelets (thrombin-induced aggregation); assay: Thrombin-induced platelet aggregation assay; type: cell-based; settings: for IC50 (estimated concentration which inhibits 50% of the aggregation): 0.5 U/mL human thrombin, 37° C., conjugate: average of 10 argatrobans/RSA used
Protocol: (§1) The conjugate was prepared according to the following protocol. A 15 μM solution of RSA in PBS was reacted with 200 μM argatroban-C6 NHS ester for 1 hour at room temperature. Sham samples consist of the RSA incubated for the same length of time at RT in 2% DMSO in PBS. Each of the samples was then concentrated to a final volume of 1.5 mL using Amicon Centricon 30 filtration/concentration devices. The concentrated samples were then desalted on Pierce's 5 ML Kwiksep excellulose plastic desalting columns. The excluded volumes containing RSA or argatroban-C6-RSA were then subjected to BCA microprotein estimation and lyophilization. In addition, these samples were analyzed by LC/MS, sandwich ELISA assays (described above) to measure thrombin binding and immunoblotting.
Platelets were purified from freshly drawn human blood diluted with the anticoagulant buffer ACD (9 mls of blood to 1 mL of buffer). The blood was centrifuged for 25 min at 200×g. The platelet-rich plasma (PRP) was recovered with a plastic pipette. The PRP was centrifuged for 15 min at 3,000×g in v-shaped plastic tubes. The supernatant, called platelet-poor plasma (PPP), was then removed and saved, and the platelets were resuspended in buffer A1 (35 mM citric acid, 103 mM NaCl, 5 mM each of glucose and KCl, 2 mM CaCl2, 1 mM […], 3.5 mg/mL BSA, 0.1 μM PGE1 and 0.3 U/mL of apyrase at pH 6.5). The resuspended platelets were washed 2 times with buffer A1. After the last wash, the platelets were resuspended in buffer B1 (137 mM NaCl, 2.6 mM KCL 12 mM NaHCO3, 0.3 mM NaH2 PO4, 3 mM CaCl2, 1 mM MgCl2, 5 mM glucose, 3.5 mg/mL BSA and […] apyrase at pH 7.4) at a density of 3×10^5 /μL. The platelets were maintained at room temperature until ready for use.
Various parameters relevant to platelet aggregation were obtained on a four channel aggregometer manufactured by AFFI BIO. In brief, the reaction chambers are warmed to 37° C. and are agitated at a rate of 1,200 rpm. Light is passed through the reaction chambers, with 300 μL of buffer B1 used to set the 100% transmittance level for each chamber. From a series of standardization experiments, it was determined that 0.5 U/mL of human thrombin (Sigma) is an optimal aggregating concentration of thrombin and is used to set. the 0% transmittance for the instrument. Standard conditions for the assay involve incubating 250 μL of the platelet suspension with or without 50 μL of inhibitor diluted in buffer in the reaction chambers for 60 seconds at 37° C. The value of transmittance is now set as 0%. After this measurement, thrombin is added to the reaction chambers (20 μl) and transmittance is measured for the next 6 minutes. Samples were performed in triplicate.

[2] = molecular target: human serum albumin (HSA) (Homo sapiens, UniProt P02768); assay: Mass spectrometric analysis of conjugation to HSA (HPLC/ESIMS); type: binding; settings: HSA 5 μM, 1 hour, room temperature
Chain of human serum albumin (HSA) (P02768 25-609): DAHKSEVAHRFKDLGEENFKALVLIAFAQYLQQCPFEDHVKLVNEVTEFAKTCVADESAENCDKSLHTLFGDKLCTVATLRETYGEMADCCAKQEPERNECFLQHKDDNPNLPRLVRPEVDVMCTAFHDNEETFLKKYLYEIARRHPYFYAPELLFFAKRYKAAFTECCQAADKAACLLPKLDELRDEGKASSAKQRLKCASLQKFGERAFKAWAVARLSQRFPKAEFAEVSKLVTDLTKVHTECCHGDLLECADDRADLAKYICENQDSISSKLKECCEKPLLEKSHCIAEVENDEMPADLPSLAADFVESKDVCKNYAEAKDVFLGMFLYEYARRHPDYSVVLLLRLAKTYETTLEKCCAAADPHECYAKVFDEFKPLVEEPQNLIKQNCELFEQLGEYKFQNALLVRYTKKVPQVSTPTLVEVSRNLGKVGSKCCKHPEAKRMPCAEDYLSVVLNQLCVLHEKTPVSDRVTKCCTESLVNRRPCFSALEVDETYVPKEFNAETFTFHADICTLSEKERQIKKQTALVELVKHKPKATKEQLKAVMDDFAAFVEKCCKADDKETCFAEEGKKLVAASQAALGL
Protocol: (§2) All samples were analyzed using a high performance liquid chromatograph (HPLC) coupled in-line to an electrospray ionization (ESI) mass spectrometer (MS) which is termed HPLC/ESIMS. Some samples were also analyzed using a matrix-assisted laser desorption ionization (MALDI) time-of-flight (TOF) mass spectrometer which is termed (MALDI-TOFMS).
(§3) Samples for HPLC/ESIMS were either prepared as duplicate reaction samples or were part of the same reaction samples which were used in the ELISA assays described below. These samples were injected directly only the HPLC/ESIMS without any manipulation other than dilution with water, where the PBS, DMSO, and unreacted derivative molecules are separated from the protein-argatroban derivative molecule conjugate. Samples for MALDI-MS were first HPLC-purified and mixed 1:1 directly on the stainless steel analysis plate with a matrix of 10 mg/ml sinnapinic acid in 50% acetonitrile/50% water. The mixture was then dried with a gentle flow of air to allow for crystallization and inserted into the instrument for laser ionization.
(§4) The HPLC is a Hewlett Packard 1090 Series II liquid chromatogram with a diode array detector. The column used for separation is a Brownlee aquapore OD-300 reversed phase C18 column, 1 mm×10 cm, 300 Å pore size, 7 μm particle diameter. The mass spectrometer to which the HPLC is connected using fused Silica capillary tubing is a Sciex API-300 triple quadrupole mass spectrometer with an ionspray source to allow for atmospheric pressure ionization of a liquid flowing continuously into the instrument. The MALDI-TOFMS is a Perceptive Biosystems Voyager Elite DE instrument run in the linear mode.

[3] = molecular target: rabbit serum albumin (RSA) (Oryctolagus cuniculus, UniProt P49065); assay: Mass spectrometric analysis of conjugation to RSA (HPLC/ESIMS, MALDI-TOFMS); type: binding; settings: HPLC/ESIMS, RSA 4.5 μM, 1 hour, room temperature
Chain of rabbit serum albumin (RSA) (P49065 25-608): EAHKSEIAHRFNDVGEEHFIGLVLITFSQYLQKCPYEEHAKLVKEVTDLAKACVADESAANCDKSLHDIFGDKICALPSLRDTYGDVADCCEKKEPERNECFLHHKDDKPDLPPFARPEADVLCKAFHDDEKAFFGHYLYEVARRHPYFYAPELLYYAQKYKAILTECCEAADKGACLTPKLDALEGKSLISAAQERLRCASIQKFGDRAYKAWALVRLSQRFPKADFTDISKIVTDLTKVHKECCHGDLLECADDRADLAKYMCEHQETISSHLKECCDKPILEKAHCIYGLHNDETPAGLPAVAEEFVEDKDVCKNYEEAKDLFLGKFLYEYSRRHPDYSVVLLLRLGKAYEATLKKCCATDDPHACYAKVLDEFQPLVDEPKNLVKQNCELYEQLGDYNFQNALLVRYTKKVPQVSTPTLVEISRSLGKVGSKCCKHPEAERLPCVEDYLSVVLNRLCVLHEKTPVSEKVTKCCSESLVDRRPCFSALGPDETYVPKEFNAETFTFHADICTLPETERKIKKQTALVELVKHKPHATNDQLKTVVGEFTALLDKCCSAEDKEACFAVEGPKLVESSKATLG
Protocol: as §2, §3, §4
as §1, with “A 15 μM solution of RSA in PBS was reacted with 200 μM argatroban-C6 NHS ester for 1 hour at room temperature.” left out

[4] = molecular target: thrombin from human plasma (Homo sapiens, UniProt P00734); assay: Km-based fluorogenic assay for inhibition of thrombin (Example 7); type: biochemical; design: from tissue; host or cells: human plasma; settings: FIGS. 9 and 10
Protocol: Thrombin from human plasma was obtained from Enzyme System Products, Dublin, Calif., in glycerol:water 1:1, 11.4 mg/ml, 3800 U/mg, MW 36,700, and stored undiluted at -20° C. It was freshly diluted the day of use.
To dilute for the assay, 0.67 μl (25 Units) of thrombin was pipetted into 5 ml of 0.1 mg/ml BSA (from Pierce, Catalog No. 23209, BSA fraction V, a 2 mg/ml stock in saline with sodium azide), in cold PBS (GIBCO, Catalog No. 14190-136, without calcium chloride and magnesium chloride, pH 7.2) and briefly vortexed, yielding a stock of 5 mU thrombin/μl.
The substrate was N-tBOC-β-Benzyl-Asp-Pro-Arg-7-Amido4-Methylcoumarin HCl and was obtained from Sigma, Catalog No. B4028, Lot 122H0070, F.W. 770.3. Five mg was dissolved in […] DMSO for a 4 mM stock. The stock was stored in 200 μl aliquots at -20° C. in the dark.
An alternative substrate was N-tBOC-Val-Pro-Arg-7-Amido4-Methylcoumarin HCl and was obtained from Sigma, Catalog No. B-9385, Lot 53H0805, F.W. of free base 627.7. Five mg was dissolved in 1.863 ml DMSO for a 4 mM stock. The stock was stored in 200 μl aliquots at -20° C. in the dark.
The fluorescent standard was 7-Amido4-Methylcoumarin and was obtained from Aldrich, Catalog No. 25,737-0, MW 175.19. […]
Initial readings were taken to ensure exclusion of rogue wells with abnormally high backgrounds (λ excitation at 360 nm, bandwidth […], λ emission, 460 nm, bandwidth 40 nm). Then, 25 μl of a 10×stock of the putative inhibitor were added per well, mixed for 5 seconds and read kinetically for 10 minutes at ambient temperature to assess background interference and/or any increase in hydrolysis of substrate due to inhibitor.
The thrombin assay was then initiated by adding 25 μl of thrombin/well with a multichannel pipettor and mixed for 5 seconds. The appearence of the fluorescent product (free 7-amido-4-methylcoumarin released from the peptide by thrombin) was followed simultaneously in 48 wells (one reading per minute for 30 minutes, λ excitation at 360 nm, bandwidth 40 nm, λ emission, 460 nm, bandwidth 40 nm). […]

thrombin = assay: Sandwich ELISA for thrombin binding of conjugated proteins (anti-thrombin detection); settings: hGPA conjugate, capture mAb 5F4, FIG. 4
Protocol: (§5) The plates were incubated at room temperature for 30 minutes and washed as above.
as §5
Next, 100 μl/well of ABC-HRP (Vector, catalog no. PK4000) was added, each component diluted 1:500 in PBS, pH 7.4, with 0.1% TWEEN 20 and incubated 30 minutes at room temperature prior to use.

[5] = test system: anti-KLH-argatroban antibody; assay: Sandwich ELISA using polyclonal anti-KLH-argatroban antibodies; type: binding, rabbit; settings: for concentration down to which detected: hGPA conjugate
Protocol: The reaction was quenched by adding hydroxylamine, pH 7.8 to a final concentration of 50 mM and incubating at room temperature for 10 minutes.
Rabbit anti-HSA monoclonal antibody (Boehringer/Mannheim, catalog no. 605001) diluted 1:5000 in PBS, pH 7.4 or mouse anti-hGPA monoclonal antibody (BioAtlan-tic/CRTS, mAb 5F4, diluted to 10 μg/ml in 0.1 M sodium acetate, pH 4.5 or mAb 3C10 diluted 1:500 or mAb 3E4 diluted 1:1000 in PBS, pH 7.4 - each antibody recognizes a different epitope of hGPA), were used to capture respective proteins by aliquotting 100 μl/well into a NUNC Maxisorp F96 plate (catalog no. 439454). The plates were incubated overnight at 4° C., were then blocked by the addition of 200 μl/well of 1% BSA/PBS and incubated at room temperature for 1 hour. The plates were then washed 5 times by submersion in PBS, pH 7.4.
Samples were incubated on the plates for 2 hours at room temperature and then were washed as above.
The plates were then incubated at room temperature for 30 minutes and washed as above.
Biotinylated goat anti-rabbit IgG (Vector, catalog no. BA1000) was diluted 1:1000 in 1% BSA/PBS, pH 7.4 and 100 μl/well added to all wells. The plates were incubated at room temperature for 30 minutes and washed as above.
Next, 100 μl/well of ABC-HRP (Vector, catalog no. PK4000) was added, each component diluted 1:500 in PBS, pH 7.4, with 0.1% TWEEN 20 and incubated 30 minutes at room temperature prior to use. The plates were then washed 10 times by submersion in PBS, pH 7.4.

With CC1CNc2c(cccc2S(=O)(=O)N[C@@H](CCCNC(=N)N)C(=O)N2CC[C@@H](C)C[C@@H]2C(=O)O)C1 (stereo partly shown) [argatroban, reference compound] the “IC50 (estimated concentration which inhibits 50% of the aggregation)” value [1] was “approximately 0.1 μM” and the “IC50 (estimated concentration which inhibits 50% of the aggregation)” value ([1]; listed as Free argatroban) was 0.1 to 0.15 µM.

For CC1CNc2c(cccc2S(=O)(=O)NC(CCCNC(=N)N)C(=O)N2CCC(C)CC2C(=O)NCCCCCCCCCCCC(=O)ON2C(=O)CCC2=O)C1 (stereo not shown) [compound YL-015-11], the “covalent addition of argatroban derivative molecules per HSA molecule” value ([2]; 0.5 μM ester) was 0-4 argatroban derivative molecules per HSA molecule, the “covalent addition of argatroban derivative molecules per HSA molecule” value ([2]; 100 μM ester) was 1-5 argatroban derivative molecules per HSA molecule and the “covalent addition of argatroban derivative molecules per RSA molecule” value ([3]; 0.5 μM ester) was 0-3 argatroban derivative molecules per RSA molecule. For the same molecule, the “covalent addition of argatroban derivative molecules per RSA molecule” value ([3]; 100 μM ester) was 1-5 argatroban derivative molecules per RSA molecule.

In the case of “RSA sham: RSA incubated for the same length of time at RT in 2% DMSO in PBS”, the “IC50 (estimated concentration which inhibits 50% of the aggregation)” value [1] is reported as over 150 µM, the “interference with platelet aggregation” value ([1]; even at 150 μM) is reported as “did not interfere with platelet aggregation even at 150 μM” and the thrombin inhibition [4] is reported as “not inhibitory at any concentration assayed”.

B1: hGPA reacted with argatroban-C6 NHS ester: human glycophorin A protein reacted with argatroban-C6 NHS ester (YL-015-35) (conjugate, UniProt P02724 20-150, looked up)
Glycophorin-A: LSTTEVAMHTSTSSSVTKSYISSQTNDTHKRDTYAATPRAHEVSEISVRTVYPPEEETGERVQLAHHFSEPEITLIIFGVMAGVIGTILLISYGIRRLIKKSPSDVKPLPSPDTDVPLSSVEIENPETSDQ
modifications: argatroban-C6 conjugate
With B1 the “concentration giving a detectable signal (binding of thrombin)” value (thrombin) was “approximately 30 ng/ml”, the “increase of OD490 versus prequenched ester or protein alone” value ([5]; HSA and hGPA samples, FIGS. 5-8) was “significant increase of OD490” and the “concentration down to which detected” value ([5]; goat anti-rabbit erythrocyte capture) was 60 ng/mL. The “concentration down to which detected” value ([5]; mouse anti-hGPA capture) was 30 ng/mL, the “detection of hGPA-argatroban derivative” value ([5]; hGPA, 3C10 mAb, FIG. 7) was “at lower levels” and the “detection of hGPA-argatroban derivative” value ([5]; hGPA, 3E4 mAb, FIG. 8) was “at lower levels”. For the same molecule, the “concentration at which a significant signal above background was detected” value ([5]; hGPA, 5F4 mAb, FIG. 6) was about 12 ng/mL.
